Entries after “also recorded” stand apart in the source; their conditions may differ.

One data set concerns NCI-N87 xenograft. Description: In vivo efficacy in NCI-N87 xenograft mouse model. Particulars: 80 mg/kg p.o. bid. As to the method: NCI-N87 cell line was purchased from ATCC (American Type Culture Collection) and was cultured in RPMI1640+10% FBS+1% P/S antibiotics.
Male Balb/c nude mice, 6-8 week, 18±2 g (supplier: Shanghai SLAC Laboratory Animal Co. Ltd.) were used for the experiment. The purchased mice were adapted to the environment for 7 days before use, and were housed at 22-25° C. with humidity 40-70%, and light cycle with fluorescent light for 12-hour light (8:00-20:00) 12-hour dark. The mice have free access to food and water.
The cancer cells (NCI-N87) were implanted subcutaneous into the nude mice (right flank) with 5.0×10^6 cells in 0.1 ml PBS (50 mice). When the tumor size reaches a volume of 200 (150-200) mm^3, the tumor-bearing nude mice were randomly assigned into groups (10 mice/group), one group was served as vehicle, one group was administrated with Lapatinib ditosylate monohydrate (80 mg/kg, free base of Lapatinib, not salt, p.o. […]). The other two groups were administrated with NT113 (also referred to as KID 113) ((15 and 30 mg/kg, p.o.q.d, respectively). The administration period lasted for 4 weeks.
The mice were monitored twice daily for appearance and behavior, and for signs of morbidity and/or mortality. The tumor volume was measured twice a week, and the body weight was measured immediately before measuring the tumor volume throughout the whole study.
At end of the experiment (compound administration for four weeks), all the tumor-bearing mice were sacrificed by cervical dislocation under deep anesthesia. The tumor mass was resected, and weighed.
Tumor sizes were measured twice weekly in two dimensions using a caliper, and the volume was expressed in mm^3 using the formula: V=½×a×b^2 where a and b are the long and short diameters of the tumor, respectively. The tumor mass was weighed at the end of the experiment after harvested.
V=½×a×b^2 (a, h is maximum and minimum diameters respectively).
RTV (Relative Tumor Volume)=Vt/Vo • Vo is the tumor volume when the test article is initial administrated • Vt is the tumor volume of every measurement day after test article administration
T/C (%)=TRTV/CRTV×100% • TRTV: RTV of test article-treatment group; CRTV: RTV of control group Inhibition rate (%)=(average tumor volume of control group average cancer volume of test article treatment group)/average tumor volume of control group×100%
The tumor-bearing mice were treated for 4 weeks with different doses of KU (15 mg/kg, 30 mg/kg, […]), qd) and Lapatinib KUA-1, 80 mg/kg, p.o., bid, 7 days/week. At the day-7 after treatment, the RTV TIC KU113 (15 mg/kg, 30 mg/kg) groups were <30%, and the tumor growth inhibition was >70%. but the RTV TIC was 31% and tumor growth inhibition rat was 69% in the lapatinib group. The same result was observed as well when it comes to the tumor weight. On day 28 after treatment, all the tumor-bearing mice were sacrificed, and all the tumor masses were harvested to weigh.

In another data set the target is EGFR kinase (Homo sapiens (Human), UniProt P00533). Description: Kinase assay for EGFR (TR-FRET, LanthaScreen). Particulars: read-out: Kinase inhibition IC50 (nM) EGFR. It counts as biochemical. How it is done:
The extent to which the compounds of the present invention modulate EGFR kinase activity can be determined using time-resolved Fret (TR-FRET) assay (LanthaScreen® kinase activity assay, from InVitrogen). The assay employs EGFR kinase (PV3872, Invitrogen), Tb-Py20 antibody (PV3552, InVitrogen) and fluorescein-poly GT (PV3610, InVitrogen).
The assay is performed in a Black 384-well plate (available from Corning). EGFR kinase (is diluted in TR-FRET Dilution Buffer (PV3189, InVitrogen) at concentration of 0.4 ug/ml as stock solution, and then 2-fold serial diluted. Addition of 1 mM ATP initiated the reaction, and the reaction is incubated for […] at room temperature. 10 μL of the Tb-antibody (from InVitrogen)+EDTA (from InVitrogen) solution prepared was added to each well of the assay plate and mix briefly, and incubated for 30 min. The signal is monitored by using M5 microplate reader (Ex=332 nm, Em=488 nm and 518 nm). Each compound is tested in duplicate wells. EGFR without compound is used as control. Staurosporine (available from Sigma) is used as positive control compound. Inhibition was calculated as percentage of the EGFR activity (without compound).
(Time-resolved FRET reads energy transfer from a long-lived donor to a nearby acceptor.)

In a further data set the target is ErbB2 kinase protein (Homo sapiens (Human), UniProt P04626). Description: Kinase assay for ErbB2. Type of data set: biochemical. Particulars: read-out: Kinase inhibition IC50 (nM) ErbB2. How it is done:
The assay is performed similarly to the kinase assay for […] as described above, except ErbB2 kinase protein is used instead of EGFR kinase protein.

Another data set has as its system BT474 cells. Put plainly: Cell proliferation inhibition assay for BT474 (CCK-8). Particulars: Homo sapiens, BT-474; 72h. It counts as cell-based. As to the method: Human breast cancer BT474 cells was cultured in low glucose DMEM (Life Technologies 12320-032) containing 10% fetal bovine serum (FBS) at 37° C. in a humidified 10% CO2, 90% air incubator. Cells were harvested using trypsin EDTA, counted using a haemocytometer, and plated 10000 cell/well in a 96-well clear tissue culture plate. The cells were incubated for 24 h at 37° C. to allow adherence. A serials of concentrations of each compound (ranging from 30 um to 0.16 nM, 5-fold dilution) in 96-well plate, and incubated for 72h. Each concentration was tested in triplicate wells. During the cell proliferation assay, BT474 cells were cultured in low-glucose DMEM containing 5% FBS, 50 ug/ml gentamicin, and 0.3% v/v DMSO. The culture medium was removed via aspiration, and the cell viability was detected by using CCK-8 cell proliferation kit. The IC50 value measured for each compound in Examples 1 to 7 is <100 nM.

The nature of data set [1]: Rat pharmacokinetics studies (plasma). It counts as in vivo, Sprague Dawley rats. Particulars: rat. As to the method:
Sample preparation: The test article each was dissolved in 10% DMSO and 90% of (40% HP-β-CD in deionized water) to yield concentration at 2 mg/mL for intravenous and oral administration.
Method development and plasma samples analysis were performed by Analytical Sciences Division of the Testing Facility by means of LC-MS/MS. The analytical results were confirmed using quality control samples for intra-assay variation (within day variation). The accuracy of >66% of the quality control samples was between 80-120% of the known value(s).
Each group consisted of 3 male Sprague Dawley rats (7-8 week old, 200-300 g body weight). The test articles were administered by a single bolus intravenous injection via the lateral tail vein or via oral gavage.
Blood samples (approximately 300 μl) were collected via retro-orbital puncture after anaesthesia using mixed gas (CO2:O2=7:3) into tubes containing EDTA-K3 anticoagulant at appropriate time points. 10 time points (Groups 1-2): Pre-dose and post-dose at 5 min, 15 min, 30 min, 1 h, 2 h, 4 h, 6 h, 8 h and 24 h.
Analysis: The PK blood samples were centrifuged at approximately 8000 rpm for (3 minutes at 2-8° C. and the resulting plasma were separated and stored frozen at approximately −80° C. (following separation, the plasma may be initially placed on ice prior to being stored in the −80° C. freezer). All the plasma samples were labeled with detailed information such as study number, animal number, matrix, time points of collection and date of collection.
Standard set of parameters including Area Under the Curve (AUC(0-t) and AUC(0-∞)), elimination half-live (T1/2), maximum plasma concentration (Cmax), time to reach maximum plasma concentration (Tmax), clearance (CL), and volume of distribution (Vz) will be calculated using noncompartmental analysis modules in FDA certified pharmacokinetic program WinNonlin Professional v5.2 (Pharsight, USA) by the Study Director. Furthermore, the Bioavailability will be estimated using the following formula:
• AUC(0-t) Area under the curve from the time of dosing to the last measurable concentration • AUC(0-∞) Area under the curve from the time of dosing extrapolated to infinity, based on the last observed concentration • CL Total body clearance, CL=Dose/AUC • Cmax Maximum observed concentration, occurring at Tmax • F Bioavailability • MRT(0-∞) Mean residence time from the time of dosing to infinity • Tmax Time of maximum observed concentration • T1/2 Terminal half-life=In(2)/λz • Vz Volume of distribution based on the terminal phase

Another data set in a line: Rat brain concentration. Type of data set: in vivo, Sprague Dawley rats. Particulars: predetermined time points. As to the method:
Brain concentration: Three rats are for brain collection (2h) only. Three rats are for brain collection (4 h) only. The rest 3 rats are for plasma (9 time points) and brain collection (24h).
Brain Collection and Tissue Processing: Post blood collection, the brain was first perfused intracardially with ˜150 mL of ice-cold, 0.1 M Phosphate Buffered Saline (PBS) at pH7.4. Then, the dura was removed before weighing the brain. The brain was then dissected into smaller pieces, rinsed twice with ˜10 mL PBS, and then flash frozen on dry ice, and stored at −80° C. before analysis.
Before tissue processing, rat brains were thawed. For the preparation of analytical standards, purchased frozen rat brains (from Pelfreez) were similarly thawed, dissected, rinsed with PBS, and 100 μL of Compound A stock solution (at 500 ng/mL and 1, 2 5, 10, and 50 μg/mL in acetonitrile) was spiked directly into the tissue. Both Compound A dosed and spiked brains then underwent the same processing procedures described below.
Briefly, 2 mL of water was added to each brain before homogenization. Homogenize the brain in 2 to 3 sessions, each approximately 15 sec. The mechanical probe of the homogenizer was cleansed in water, 70% ethanol, and ethyl acetate after each sample. The resulting brain homogenates were then extracted with ethyl acetate three times (14 mL total), and centrifuged to separate the aqueous and organic phases after each extraction. Per brain, pooled organic phase were evaporated under a stream of nitrogen at 40° C. and the residues were reconstituted with 4 mL of mobile phase B. Compound A spiked brain samples in the 4 mL solutions had final concentrations of 12.5, 25, 50, 125, 250, 1250 ng/mL. The reconstituted samples were incubated for ˜15 minutes at 60° C. and, vortexed for 10 minutes to fully dissolve the analytes. The samples were centrifuged, and then further diluted with Mobile phase B (shown below) before LC/MS/MS analysis. Dilute 20 μL of reconstituted samples with 1.5 mL mobile phase B. Transfer and inject supernatant to […] system for analysis.

Chain of ErbB2 kinase protein (P04626 23-1255): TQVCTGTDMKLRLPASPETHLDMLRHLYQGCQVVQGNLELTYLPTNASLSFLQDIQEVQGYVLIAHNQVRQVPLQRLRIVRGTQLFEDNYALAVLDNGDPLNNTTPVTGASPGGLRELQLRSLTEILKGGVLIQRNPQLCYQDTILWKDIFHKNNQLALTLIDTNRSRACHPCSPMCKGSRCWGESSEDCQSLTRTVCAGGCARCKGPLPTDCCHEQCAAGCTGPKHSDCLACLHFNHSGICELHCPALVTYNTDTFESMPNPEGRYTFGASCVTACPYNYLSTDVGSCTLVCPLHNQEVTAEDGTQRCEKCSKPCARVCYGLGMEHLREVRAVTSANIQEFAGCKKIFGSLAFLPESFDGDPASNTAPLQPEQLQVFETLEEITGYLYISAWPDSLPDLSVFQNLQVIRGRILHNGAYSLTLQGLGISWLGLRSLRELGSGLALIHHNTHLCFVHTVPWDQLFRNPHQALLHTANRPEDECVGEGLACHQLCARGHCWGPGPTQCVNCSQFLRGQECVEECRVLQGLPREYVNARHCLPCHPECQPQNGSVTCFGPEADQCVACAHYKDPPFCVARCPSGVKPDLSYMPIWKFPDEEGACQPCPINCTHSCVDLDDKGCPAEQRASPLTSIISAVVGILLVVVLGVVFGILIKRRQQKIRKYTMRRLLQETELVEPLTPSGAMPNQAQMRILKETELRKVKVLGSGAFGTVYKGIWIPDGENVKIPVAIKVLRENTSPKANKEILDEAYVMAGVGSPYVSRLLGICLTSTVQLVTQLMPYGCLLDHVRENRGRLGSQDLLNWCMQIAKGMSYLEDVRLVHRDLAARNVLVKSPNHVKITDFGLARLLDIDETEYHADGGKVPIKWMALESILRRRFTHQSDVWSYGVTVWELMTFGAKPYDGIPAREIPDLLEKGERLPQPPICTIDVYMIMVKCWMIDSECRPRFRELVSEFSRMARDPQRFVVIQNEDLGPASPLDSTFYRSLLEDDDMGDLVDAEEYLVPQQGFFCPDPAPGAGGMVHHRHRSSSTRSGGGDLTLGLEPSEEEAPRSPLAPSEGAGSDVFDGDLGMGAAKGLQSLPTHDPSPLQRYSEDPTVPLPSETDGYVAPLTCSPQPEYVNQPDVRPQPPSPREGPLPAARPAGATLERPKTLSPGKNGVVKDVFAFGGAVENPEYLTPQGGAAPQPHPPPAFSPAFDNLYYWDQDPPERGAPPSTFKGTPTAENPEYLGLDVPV
Chain of EGFR kinase (P00533 668-1210): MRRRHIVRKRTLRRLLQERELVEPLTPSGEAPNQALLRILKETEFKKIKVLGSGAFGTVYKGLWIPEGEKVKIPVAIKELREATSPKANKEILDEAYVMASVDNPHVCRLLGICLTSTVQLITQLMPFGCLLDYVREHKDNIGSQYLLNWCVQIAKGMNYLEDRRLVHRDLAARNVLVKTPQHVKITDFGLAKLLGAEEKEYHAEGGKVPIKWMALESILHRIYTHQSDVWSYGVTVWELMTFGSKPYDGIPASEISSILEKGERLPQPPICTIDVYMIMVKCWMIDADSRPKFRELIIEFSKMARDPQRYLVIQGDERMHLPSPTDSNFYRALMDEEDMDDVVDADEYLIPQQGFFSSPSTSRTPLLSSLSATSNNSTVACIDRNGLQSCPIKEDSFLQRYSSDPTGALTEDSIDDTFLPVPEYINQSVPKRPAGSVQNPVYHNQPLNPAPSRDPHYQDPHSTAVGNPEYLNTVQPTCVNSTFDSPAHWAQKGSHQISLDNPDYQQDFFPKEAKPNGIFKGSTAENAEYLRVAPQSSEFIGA

Consider `CS(=O)(=O)CCNCc1ccc(-c2ccc3ncnc(Nc4ccc(OCc5cccc(F)c5)c(Cl)c4)c3c2)o1` [Lapatinib, reference compound], for which the tumor inhibition rate in the data set on NCI-N87 xenograft (day 28 (last day of the study)) is 92.9%. In addition, in the data set with NCI-N87 xenograft (day-7 after treatment), the “RTV T/C” value stood at 31% and the “tumor growth inhibition rate” value came out at 69%.

In general, IC50 refers to the concentration that inhibits the measured activity by half. With `CN(C)C/C=C/C(=O)Nc1cc2c(Nc3ccc(F)c(Cl)c3)ncnc2cc1C#CC1CCOC1` (stereo not shown) [Example 1, (E)-N-(4-(3-chloro-4-fluorophenylamino)-7-(2-(tetrahydrofuran-3-yl)ethynyl)quinazolin-6-yl)-4-(dimethylamino)but-2-enamide], the IC50 at EGFR kinase, at ErbB2 kinase protein and in the data set with BT474 cells was less than 100 nM each time.

As to `CN(C)C/C=C/C(=O)Nc1cc2c(Nc3ccc(F)c(Cl)c3)ncnc2cc1C#C[C@@H]1CCCO1` [Example 2, (E)-N-(4-(3-chloro-4-fluorophenylamino)-7-(2-((S)-tetrahydrofuran-2-yl)ethynyl)quinazolin-6-yl)-4-(dimethylamino)but-2-enamide], the IC50 at EGFR kinase, on ErbB2 kinase protein and in the data set with BT474 cells was less than 100 nM throughout.

In the case of `CN(C)C/C=C/C(=O)Nc1cc2c(Nc3ccc(F)c(Cl)c3)ncnc2cc1O[C@H]1CCOC1` [afatinib, reference compound], the “rat PK (qualitative)” value in data set [1] is “poor PK”. Besides, the Kp in the data set “Rat brain concentration” (Sprague Dawley, brain/plasma, read-out: Brain/plasma concentration ratio) is less than 0.05. Further, in “Rat brain concentration”, the brain concentration was less than 1 ng/g and the “brain concentration (detectability)” value was “no detectable brain concentration; also recorded: below detection limit”.

In the case of `CN(C)C/C=C/C(=O)Nc1cc2c(Nc3ccc(F)c(Cl)c3)ncnc2cc1C#C[C@@]12COC[C@@H]1C2` [Example 7, (E)-N-(4-(3-chloro-4-fluorophenylamino)-7-(2-((1S,5R)-3-oxa-bicyclo[3.1.0]hexan-1-yl)ethynyl)quinazolin-6-yl)-4-(dimethylamino)but-2-enamide], the half-maximal inhibitory concentration (IC50) at EGFR kinase, at ErbB2 kinase protein and in the data set on BT474 cells was less than 100 nM throughout.

Turning to `CN(C)C/C=C/C(=O)Nc1cc2c(Nc3ccc(F)c(Cl)c3)ncnc2cc1C#C[C@H]1CCCO1` [Example 3, (E)-N-(4-(3-chloro-4-fluorophenylamino)-7-(2-((R)-tetrahydrofuran-2-yl)ethynyl)quinazolin-6-yl)-4-(dimethylamino)but-2-enamide], the half-maximal inhibitory concentration (IC50) on EGFR kinase, at ErbB2 kinase protein and in the data set with BT474 cells was less than 100 nM in each case.

For the compound `CN(C)C/C=C/C(=O)Nc1cc2c(Nc3ccc(F)c(Cl)c3)ncnc2cc1C#CC12COCC1C2` (stereo not shown) [Example 5, (E)-N-(4-(3-chloro-4-fluorophenylamino)-7-(2-(3-oxa-bicyclo[3.1.0]hexan-1-yl)ethynyl)quinazolin-6-yl)-4-(dimethylamino)but-2-enamide], the IC50 at EGFR kinase, on ErbB2 kinase protein and in the data set with BT474 cells was less than 100 nM each time.

In the case of `CN(C)C/C=C/C(=O)Nc1cc2c(Nc3ccc(F)c(Cl)c3)ncnc2cc1C#C[C@]12COC[C@H]1C2` [Example 6, (E)-N-(4-(3-chloro-4-fluorophenylamino)-7-(2-((1R,5S)-3-oxa-bicyclo[3.1.0]hexan-1-yl)ethynyl)quinazolin-6-yl)-4-(dimethylamino)but-2-enamide], the 50% inhibitory concentration (IC50) at EGFR kinase, on ErbB2 kinase protein and in the data set on BT474 cells was less than 100 nM throughout.

The values are drawn from US11524956B2, “Alkyne substituted quinazoline compound and methods of use” (Newgen Therapeutics, Inc., priority 2011, dated 2022).
